From a melting point compilation (Tetko et al.; mined from patent text by program, amines drawn as free bases though some values may be those of a salt)

First: CCCc1nc(C(C)C)c(C(=O)OCc2ccc(-c3ccccc3C(=O)C(=O)O)cc2)[nH]1
Second: CCCc1c2ccccc2c(O)c2c(=O)cc(C(=O)OCC)oc12
The melting point of the first is higher: 177 to 178 °C for the first, 148 to 150 °C for the second.

First: O=S(=O)(CC(F)(F)F)Nc1ccc(N2CCN(c3ccc(OCC(O)(Cn4cncn4)c4ccc(Cl)cc4Cl)cc3)CC2)cc1 (stereo not given)
Second: O=C(O)c1ccc(CN2CCC(CCCC(=O)c3ccc4c(c3)CCN(Cc3ccccc3)CC4)CC2)cc1
The melting point of the first is lower: 74 to 75 °C for the first, 165 to 176 °C for the second.

Compared with `Cc1nc(-c2c(Cl)cc(C(F)(F)F)cc2Cl)[nH]c1C`, `CSC(=Cc1cnn(-c2c(Cl)cc(C(F)(F)F)cc2Cl)n1)S(C)=O` (stereo not given) is lower in melting point: 281 to 282 °C for the first, 122 to 123 °C for the second.

First: Cc1nc2ncnn2c(Cl)c1CCCl
Second: CCc1nnc(-c2cn3c(C)c(CC)c(OC)nc3n2)o1
The melting point of the first is lower: 81 to 82 °C for the first, 170 to 172 °C for the second.

First: CC(=O)SC(C(=O)c1cccc(F)c1)C(C)C(=O)N1CCC[C@H]1C(=O)O (stereo not given in full)
Second: CC(C)[C@H]1C[C@@H]([C@H](CC2CCCCC2)NC(=O)OCc2ccccc2)OC1=O
The melting point of the first is higher: 158 to 159 °C for the first, 117 to 118 °C for the second.

First: NC(=O)c1ccnc(-c2csc(N=C(N)N)n2)c1
Second: Cc1cccc(CC(=O)c2ccnc(-c3ccc(C=O)cc3)c2)n1
The melting point of the first is higher: 169 to 171 °C for the first, 118 °C for the second.

First: COC(=O)C(CCCN(C)CCc1ccc(OC)c(OC)c1)c1ccc(OC)c(OC)c1 (stereo not given)
Second: COc1ccc(CC(=O)NC(NC(=NC#N)Nc2c(F)cc(F)cc2F)C(C)(C)C)cc1OC (stereo not given)
The melting point of the first is lower: 112 to 114 °C for the first, 170 to 171 °C for the second.

First: CCCCCCCCCCCCCCCCCCCC(=O)OCC(O)COC(=O)CCCCCCCCCCCCCCCCCCC
Second: CCOC(=O)CN1CCN(C(=O)OC(C)(C)C)CC1
The melting point of the first is higher: 83 to 84 °C for the first, 67 to 69 °C for the second.

First: O=C(c1ccc(-c2cccc3ccccc23)cc1Cl)N1Cc2cccn2Cc2ccccc21
Second: O=C(c1cnc(Cc2ccc(Cl)cc2)[nH]1)N1CCC(c2ccccc2)(c2ccccc2)CC1
The melting point of the first is higher: 115 to 118 °C for the first, 105 to 106 °C for the second.

First: CNc1nc2ccc(Cc3ccccn3)cc2s1
Second: c1ccc2cc(Cn3ccnc3)ccc2c1
The melting point of the first is higher: 118 to 121 °C for the first, 87 to 88 °C for the second.

First: CC(=O)NCc1cc([N+](=O)[O-])ccc1N
Second: CCc1cc(Cl)ccc1NC(C)=O
The melting point of the first is higher: 208 to 210 °C for the first, 117 to 122 °C for the second.

First: CCCc1c(OCc2ccc(/C=C3\SC(=S)NC3=O)cc2)ccc(C(C)=O)c1O
Second: C/C(=C\c1ccc(Cc2cccnc2)cc1)C(=O)O
The melting point of the first is higher: 236 to 238 °C for the first, 164 to 166 °C for the second.

First: COCCNC(=O)c1cccc(-c2cccc3c2nc(Oc2cccc(C(F)(F)F)c2)n3C)c1
Second: O=C(NCCCO)c1cccc(-c2cccc(Oc3cc(Cl)cc(Cl)c3)n2)c1
The melting point of the first is higher: 146 to 147 °C for the first, 101 to 102 °C for the second.

First: CC(O)(C#Cc1ccccc1)C(=O)O (stereo not given)
Second: CC(=O)Sc1ccc(C#C[Si](C)(C)C)cc1
The melting point of the first is higher: 104 to 106 °C for the first, 45 to 47 °C for the second.

First: CCc1c(N)nc(-c2ccc(Cl)c(OC)c2F)nc1C(=O)OC
Second: COC(=O)c1c(Cl)ccc(C(=O)O)c1Cl
The melting point of the first is lower: 144 to 146 °C for the first, 183 to 185 °C for the second.

Going from `O=C(O)C=Cc1ccc(/C=C/c2ccncc2)cc1` to `CCOC(=O)c1ccc(NC(=O)NCCN2CCN=C2c2ccncc2)cc1`, the melting point falls from over 300 °C to 120 °C.

Compared with `COC(=O)c1cc(Cl)ncc1[N+](=O)[O-]`, `COC(=O)c1c(N)cc(Cl)cc1[N+](=O)[O-]` is higher in melting point: 60.5 to 64.1 °C for the first, 114 to 116 °C for the second.

Compared with `Cc1cc(C2=CC(=O)c3cccc(O)c3C2=O)c(C)[nH]1`, `COc1ccc2c(c1)c1c3c(c(-c4ccccc4Cl)cc1n2CCC(=O)O)C(=O)NC3=O` is higher in melting point: 195 to 196 °C for the first, 277 °C for the second.

First: CS(=O)(=O)Nc1cccc(Nc2nc(NCc3cccnc3)c3nc[nH]c3n2)c1
Second: CC(=O)Nc1cccc(Nc2ncnc3[nH]cc(C(=O)c4cccc5ccccc45)c23)c1
The melting point of the first is lower: 144 to 147 °C for the first, over 300 °C for the second.

First: CC(=O)c1ccc(-n2c(C)ccc2-c2ccc(S(C)(=O)=O)cc2)cc1
Second: N=C(N)c1ccc(-c2ccc(N3CCN(CCC(=O)O)S3(=O)=O)cc2)cc1
The melting point of the first is lower: 179 to 180 °C for the first, over 260 °C for the second.

First: CN1CC(=O)Nc2ccccc2C1
Second: CN(C)C(=O)COC1c2ccccc2CCc2ccccc21
The melting point of the first is higher: 113 to 114 °C for the first, 73 to 75 °C for the second.

Compared with `Cc1ccc(C(=O)NCN2CCN(c3ncccc3C#N)CC2)cc1`, `Cc1cc(C(=O)NC/C=C\COc2ncccc2CN2CCCCC2)n[nH]1` is lower in melting point: 134 to 136 °C for the first, 93 to 95 °C for the second.

First: O=C(O)Cc1ccc(-c2cn3ccsc3n2)cc1
Second: O=C(O)C(Cc1ccsc1)N1C(=O)c2ccccc2C1=O (stereo not given)
The melting point of the first is higher: 248 to 249 °C for the first, 162 to 165 °C for the second.

Compared with `N#CC1OC(=O)c2cccc(F)c21` (stereo not given), `CSC1Oc2cccc3cccc(c23)C1=O` (stereo not given) is lower in melting point: 93 to 96 °C for the first, 89 to 91 °C for the second.

Compared with `Cc1nn(C)c2nc3n(c(=O)c12)CCS3`, `CNC(=O)ON=C1SCCN(C(=O)NC)C1=O` is lower in melting point: 229 to 230 °C for the first, 187 to 189 °C for the second.

Compared with `CC1NC2(c3ccccc3)c3ccccc3C(=O)N2C1C` (stereo not given), `COC(=O)C1=Cc2cc(Br)ccc2N(c2ccccc2)CC1` is lower in melting point: 162 to 164 °C for the first, 104 to 106 °C for the second.

First: C#CCNC1=NS(=O)(=O)N=C1NCCSCc1nc[nH]c1C
Second: COC(=O)CC(C#N)(C(=O)OC)c1cccc2ccc(OC)cc12 (stereo not given)
The melting point of the first is lower: 82 to 103 °C for the first, 119 to 121 °C for the second.

First: CCC(=O)NCCC1=CCc2cnc3c(c21)CCO3
Second: CCS(=O)(=O)c1ccc2cc(C(=O)O)ccc2c1
The melting point of the first is lower: 111 to 112 °C for the first, 241 °C for the second.

`[N-]=[N+]=N[Si](c1ccccc1)(c1ccccc1)c1ccccc1` and `COc1ccc(-c2nnsc2-c2ccccc2)cc1` cannot be ordered by melting point: 82 to 84 °C for the first, 81.5 to 82.5 °C for the second.

First: Clc1ccc(OC(c2cccnc2)n2cncn2)c(Cl)c1 (stereo not given)
Second: O=[N+]([O-])c1ccc2c(c1)N=Cc1ccccc1O2
The melting point of the first is lower: 75.5 to 78 °C for the first, 179 to 181 °C for the second.

Compared with `CCS(=O)(=O)CCOc1cc(C)c(-c2cccc(COc3ccc(CCC(=O)O)c(F)c3)c2)c(C)c1`, `COc1ccc2cc(S(=O)(=O)Nc3cccc(Cl)c3C)cc(S(=O)(=O)Nc3cccc(Cl)c3C)c2c1` is higher in melting point: 126 to 127 °C for the first, 166 to 168 °C for the second.

First: CCO[C@@H]1C[C@H](C(=O)Nc2ccc(N3CCOCC3=O)c(C)c2)N(C(=O)Nc2ccc(Cl)cc2)C1
Second: CS(=O)(=O)c1cc(OCC(O)CNC2CCC(c3ccc(C(=O)N4CCC(C(O)c5ccccc5)CC4)cc3)CC2)ccc1O (stereo not given)
The melting point of the first is lower: 117 °C for the first, 120 °C for the second.

First: Cc1nnsc1C(=O)NS(C)(=O)=O
Second: Cc1c(C(=O)O)ccc(S(C)(=O)=O)c1N(C)C
The melting point of the first is higher: 187 °C for the first, 113 to 114 °C for the second.

First: Cc1cc(S(N)(=O)=O)sc1S(=O)(=O)CCO
Second: NS(=O)(=O)c1cnc(-c2cn(-c3cc(-c4ccc(C(F)(F)F)cc4)cc(C(F)(F)F)n3)cn2)s1
The melting point of the first is lower: 144 to 148 °C for the first, over 250 °C for the second.

First: O=CNCCN1CCC(Nc2nc3ccccc3n2Cc2ccc(F)cc2)CC1
Second: Cc1oc(=O)c(Nc2ccccc2F)nc1Cl
The melting point of the first is higher: 153 °C for the first, 126 to 129 °C for the second.

First: O=C(O)CC1CCC(N2CCC(CNc3ccncc3)CC2)CC1 (stereo not given)
Second: OC1CC(O)C2CC1NN2 (stereo not given)
The melting point of the first is higher: 260 °C for the first, 203 to 205 °C for the second.

Compared with `CN=C(NC#N)C1=CC(CF)(CF)Oc2ccc([N+](=O)[O-])cc21`, `N#Cc1c[nH]nc1-c1ccc([N+](=O)[O-])o1` is lower in melting point: 259 to 261 °C for the first, 238 to 239 °C for the second.

Compound `OCc1cnc(Cl)c(Cl)c1` has a melting point of 72 to 75 °C.
